In patent US11959083B2, “Immunosuppression-reverting oligonucleotides inhibiting the expression of CD39” (Secarna Pharmaceuticals GmbH & Co. KG, priority 2016, dated 2024):
l = locked nucleic acid (LNA); d = 2'-deoxy (DNA)

Tests used:
Assay type in all cases: cell-based, human
hCD39 mRNA [1] = assay: hCD39 mRNA knockdown efficacy screen in A-172 cells (single dose, gymnotic delivery, QuantiGene Singleplex); details: 10 μM, 3 days; for Mean hCD39 mRNA expression (relative to untreated cells set as 1): first screening round; for Mean hCD39 mRNA expression (relative to untreated cells set as 1) / Relative hCD39 mRNA expression (compared to non-treated cells): normalized to HPRT1; for Relative hCD39 mRNA expression (compared to non-treated cells): second screening round; for Residual hCD39 mRNA expression relative to untreated cells (set as 1): third screening round
Protocol: (§1) FIGS. 2A to 2D depict hCD39 mRNA knockdown efficacy of hCD39 antisense oligonucleotides in human cancer cell lines HDLM-2 (human Hodgkin Lymphoma) in a first and second screening round (FIGS. 2A-1 and 2A-2) and 2B-1 and 2B-2 and A-172 (human glioblastoma) in a first and second screening round (FIGS. 2C-1 and 2C-2) and 2D-1 and 2D-2. HDLM-2 and A-172 cells were treated for 3 days with 10 μM of the respective antisense oligonucleotide. As negative control, cells were treated with neg1, an antisense oligonucleotide having the sequence CGTTTAGGCTATGTACTT (SEQ ID NO:99) (described in WO2014154843 A1). Residual hCD39 mRNA expression relative to untreated cells is depicted. Expression values were normalized to expression of the housekeeping gene HPRT1. Depicted is the mean of triplicate wells+/−SD.
(§2) FIGS. 6A-6B depicts a third screening round where further antisense oligonucleotides were designed. These antisense oligonucleotides were based on efficient antisense oligonucleotides from the first and second screening round. Therefore, hCD39 antisense oligonucleotides were tested in human cancer cell lines HDLM-2 (human Hodgkin's lymphoma) (FIG. 6A) and A-172 (human glioblastoma) (FIG. 6B). HDLM-2 and A-172 cells were treated for 3 days with 10 μM of the respective antisense oligonucleotide. […] Residual hCD39 mRNA expression relative to untreated cells (set as 1) is depicted.
(§3) In order to analyze the efficacy of hCD39 antisense oligonucleotides of the present invention with regard to the knockdown of hCD39 mRNA expression in cancer cell lines, HDLM-2 (human Hodgkin Lymphoma, DSMZ) and A-172 (human glioblastoma, ATCC) cells were treated with a single dose (concentration: 10 μM without addition of any transfection reagent; this process is called gymnotic delivery) of the respective antisense oligonucleotide as shown in FIG. 2A to 2D. hCD39 and HPRT1 mRNA expression was analyzed three days later using the QuantiGene Singleplex assay (Affymetrix) and hCD39 expression values were normalized to HPRT1 values. […] Values of the mean normalized mRNA expression of hCD39 compared to non-treated cells are listed for A-172 (Table 4 for first screening round and Table 5 for second screening round) and HDLM-2 cells (Table 6 for first screening round and Table 7 for second screening round) in the following:
(§4) For a third screening round, new antisense oligonucleotides were designed. These antisense oligonucleotides were based on efficient antisense oligonucleotides from the first screening round with modifications in length, exact position on mRNA and chemical modification pattern. Therefore, hCD39 antisense oligonucleotides were tested in human cancer cell lines (FIG. 6A, Table 10) HDLM-2 (human Hodgkin's lymphoma) and (FIG. 6B, Table 11) A-172 (human glioblastoma). HDLM-2 and A-172 cells were treated for 3 days with 10 μM of the respective antisense oligonucleotide. […] Residual hCD39 mRNA expression relative to untreated cells (set as 1) is depicted.

hCD39 mRNA [2] = assay: hCD39 mRNA knockdown efficacy screen in HDLM-2 cells (single dose, gymnotic delivery, QuantiGene Singleplex); design: key to Relative hCD39 mRNA expression (compared to non-treated cells): *: values are below detection limit; details: 10 μM, 3 days; for Mean hCD39 mRNA expression normalized to HPRT1 relative to untreated control = 1: first screening round; for Relative hCD39 mRNA expression (compared to non-treated cells): second screening round, normalized to HPRT1; for Residual hCD39 mRNA expression relative to untreated cells (set as 1): third screening round
Protocol: as §1, §2, §3, §4

hCD39 mRNA [3] = assay: IC50 determination / concentration-dependent hCD39 mRNA knockdown in HDLM-2 cells; details: for mRNA inhibition: HDLM-2, 3 days; for IC50: HDLM-2 cells, hCD39 mRNA, 3 days
Protocol: HDLM-2 cells were treated for 3 days with the indicated concentration of the respective antisense oligonucleotide. Residual hCD39 expression is depicted compared to untreated control cells. hCD39 mRNA expression values were normalized to expression of the housekeeping gene HPRT1.
The antisense oligonucleotide A04040H (SEQ ID No. 3) that had shown potent activity in the first and second screening round was used as reference. HDLM-2 cells treated for 3 days with the indicated concentrations of the respective antisense oligonucleotide. hCD39 mRNA expression values were normalized to expression of the housekeeping gene HPRT1. Residual hCD39 mRNA expression relative to untreated cells (set as 100) is depicted. Depicted is the mean of triplicate wells+/−SD.
In a second experiment the concentration-dependency of effects and the IC50 values of hCD39 antisense oligonucleotides A04010H (SEQ ID No.14), A04016H (SEQ ID No.20), A04017H (SEQ ID No.21), A04020H (SEQ ID No. 24) and A04026H (SEQ ID No.30) were tested. […] HDLM-2 cells were treated with titrated amounts of the respective antisense oligonucleotide (concentrations: 10 μM, 3.3 μM, 1.1 μM, 370 nM, 120 nM, 41 nM, 14 nM, 4.5 nM). hCD39 mRNA expression was analyzed after three days of treatment. FIG. 5 and Table 9 depicts the concentration-dependent reduction of hCD39 mRNA expression by the selected hCD39 antisense oligonucleotides.
The hCD39 antisense oligonucleotides A04051H (SEQ ID No.88), A04052H (SEQ ID No.89), A04053H ([…]), A04056H (SEQ ID No.92), A04059H (SEQ ID No.94), A04060H (SEQ ID No.95), and A04061H (SEQ ID No.96) had shown potent single-dose activity in both HDLM-2 and A-172 cells. […] The antisense oligonucleotide A04040H that had shown potent activity in the first screening round was used as reference. hCD39 mRNA expression was analyzed after 3 days of treatment. FIG. 7 depicts the concentration-dependent reduction of hCD39 expression by hCD39 antisense oligonucleotides.

[4] = first screening round (Table 8)

| Substance | Mean hCD39 mRNA expression (relative to untreated cells set as 1) (hCD39 mRNA [1]) | Relative hCD39 mRNA expression (compared to non-treated cells) (hCD39 mRNA [1]) | Mean hCD39 mRNA expression normalized to HPRT1 relative to untreated control = 1 (hCD39 mRNA [2]) | Relative hCD39 mRNA expression (compared to non-treated cells) (hCD39 mRNA [2]) | Residual hCD39 mRNA expression relative to untreated cells (set as 1) (hCD39 mRNA [1]) | Residual hCD39 mRNA expression relative to untreated cells (set as 1) (hCD39 mRNA [2]) | also measured |
| --- | --- | --- | --- | --- | --- | --- | --- |
| +A*+C*C*C*T*G*A*G*T*T*G*T*A*A*C*+T (antisense ACCCTGAGTTGTAACT; sugars from the 5' end l2 d13 l1, all phosphorothioate, methylation of C not given here) [A04033H] | 0.28 | 0.14 | 0.10 | * | – | – | mRNA inhibition (hCD39 mRNA [3]; 0.0045 μM, Table 8): 3.05%; mRNA inhibition (hCD39 mRNA [3]; 0.013 μM, Table 8): −3.30%; mRNA inhibition (hCD39 mRNA [3]; 0.04 μM, Table 8): 24.10%; mRNA inhibition (hCD39 mRNA [3]; 0.12 μM, Table 8): 46.98%; mRNA inhibition (hCD39 mRNA [3]; 0.4 μM, Table 8): 70.74%; mRNA inhibition (hCD39 mRNA [3]; 1.1 μM, Table 8): 83.81%; mRNA inhibition (hCD39 mRNA [3]; 3.3 μM, Table 8): 92.79%; mRNA inhibition (hCD39 mRNA [3]; 10 μM, Table 8): 98.02%; IC50 (hCD39 mRNA [3]; [4]): 119 nM |
| +A*+G*+A*G*T*G*C*C*T*G*A*T*C*+C*+T*+T (antisense AGAGTGCCTGATCCTT; sugars from the 5' end l3 d10 l3, all phosphorothioate, methylation of C not given here) [A04051H] | – | – | – | – | 0.34 | 0.02 | mRNA inhibition (hCD39 mRNA [3]; 0.45 nM, Table 12): 30.83%; mRNA inhibition (hCD39 mRNA [3]; 1.3 nM, Table 12): 15.36%; mRNA inhibition (hCD39 mRNA [3]; 4 nM, Table 12): 23.62%; mRNA inhibition (hCD39 mRNA [3]; 12 nM, Table 12): 23.14%; mRNA inhibition (hCD39 mRNA [3]; 40 nM, Table 12): 43.66%; mRNA inhibition (hCD39 mRNA [3]; 110 nM, Table 12): 70.34%; mRNA inhibition (hCD39 mRNA [3]; 330 nM, Table 12): 86.77%; mRNA inhibition (hCD39 mRNA [3]; 1000 nM, Table 12): 92.82%; IC50 (hCD39 mRNA [3]; third screening round (Table 12)): 69 nM |
| +C*+A*+G*T*C*A*A*T*C*C*T*G*C*+T*+C*+A (antisense CAGTCAATCCTGCTCA; sugars from the 5' end l3 d10 l3, all phosphorothioate, methylation of C not given here) [A04039H] | 0.27 | 0.14 | 0.06 | * | – | – | mRNA inhibition (hCD39 mRNA [3]; 0.0045 μM, Table 8): 11.56%; mRNA inhibition (hCD39 mRNA [3]; 0.013 μM, Table 8): 14.30%; mRNA inhibition (hCD39 mRNA [3]; 0.04 μM, Table 8): 20.47%; mRNA inhibition (hCD39 mRNA [3]; 0.12 μM, Table 8): 44.03%; mRNA inhibition (hCD39 mRNA [3]; 0.4 μM, Table 8): 71.25%; mRNA inhibition (hCD39 mRNA [3]; 1.1 μM, Table 8): 85.22%; mRNA inhibition (hCD39 mRNA [3]; 3.3 μM, Table 8): 92.53%; mRNA inhibition (hCD39 mRNA [3]; 10 μM, Table 8): 96.54%; IC50 (hCD39 mRNA [3]; [4]): 177 nM |
| +T*+A*+G*T*A*A*G*C*C*C*T*G*+A*+T*+G (antisense TAGTAAGCCCTGATG; sugars from the 5' end l3 d9 l3, all phosphorothioate, methylation of C not given here) [A04055H] | – | – | – | – | 0.52 | 0.03 | – |
| +T*+A*G*A*C*A*T*T*G*T*A*G*+T*+C*+C (antisense TAGACATTGTAGTCC; sugars from the 5' end l2 d10 l3, all phosphorothioate, methylation of C not given here) [A04009H] | 0.28 | 0.29 | 0.15 | 0.15 | – | – | – |
| +T*+G*+A*T*A*G*C*C*T*T*G*C*+A*+G*+A (antisense TGATAGCCTTGCAGA; sugars from the 5' end l3 d9 l3, all phosphorothioate, methylation of C not given here) [A04014H] | 0.27 | 0.27 | 0.17 | 0.17 | – | – | – |
| +T*+T*+G*A*A*C*A*C*T*G*C*+G*+A*+T (antisense TTGAACACTGCGAT; sugars from the 5' end l3 d8 l3, all phosphorothioate, methylation of C not given here) [A04003H] | 0.18 | 0.18 | 0.20 | 0.20 | – | – | – |
| +T*+T*+G*C*A*G*A*G*C*A*T*T*+A*+T*+C (antisense TTGCAGAGCATTATC; sugars from the 5' end l3 d9 l3, all phosphorothioate, methylation of C not given here) [A04007H] | 0.53 | 0.53 | 0.23 | 0.23 | – | – | – |
| +T*+T*+T*G*T*G*T*G*A*G*A*G*+C*+T*+T (antisense TTTGTGTGAGAGCTT; sugars from the 5' end l3 d9 l3, all phosphorothioate, methylation of C not given here) [A04058H] | – | – | – | – | 0.25 | 0.01 | – |
| +T*G*+T*A*G*A*G*G*C*T*C*C*C*+C*+C (antisense TGTAGAGGCTCCCCC; sugars from the 5' end l1 d1 l1 d10 l2, all phosphorothioate, methylation of C not given here) [A04006H] | 0.19 | 0.20 | 0.20 | 0.20 | – | – | – |
